This is an account of results in patent EP1948196B1, “USE OF TETRAORGANOSILICON COMPOUNDS” (Salama, Zoser B., priority 2005, dated 2007).

Numbered stars: 1 amine (or outer) side, 2 acyl side, 3 side chain; on linkers, the order of the positions; unused ones are H or OH. Bridge positions count the residues as written; N and C are the ends. Peptide text beside a SMILES is read from it. I, II: the chains in the order shown. OSi(nPr)2O = CCC[Si](CCC)(O[*:1])O[*:2]

One data set deals with Plasmozyten. Nature of the data set: Effect against plasmocytes.
Another data set relates to Hepatitis A-Viren. Nature of the data set: Antiviral effect. To be noted: in particular as vesicles holding antisense constructs.
The next data set relates to Osteosarkome. Put plainly: Effect on osteosarcomas.
The next data set deals with Maus. Put plainly: Pharmacological observation in the mouse (central, vegetative and toxic effects, acute toxicity). The data set is classed as in vivo. Summed up: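 Mice given single doses of 5·10^-4, 1·10^-3 and 5·10^-3 mol/kg body weight and observed individually. Recorded: orienting lethal dose (oLD), motor activity, reactivity, skin and rectal temperature, and pupil motility.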

Data set [1] relates to Kälber-Aortenendothelzellinie BKEz-7. Put plainly: Neutral red vitality test. The format is cell-based. Conditions: compared with the cytotoxicity test. The protocol: (§1) Als Marker für eine zytotoxische Wirkung wird bei Zellen der charakterisierten Kälber-Aortenendothelzellinie BKEz-7 die Hemmkonzentration ermittelt, bei der eine 50%-ige Hemmung der Zellproliferation erfolgt (im Vergleich zu Kontrollkulturen ohne Zusatz eines Zellinhibitors). Die resultierende Reduzierung der Zellzahl um 50% wird als IC 50 ausgedrückt. Die getesteten Silanverbindungen wurden als Suspensionen auf die Kulturen gegeben und 48 Stunden bei 37°C inkubiert. Zusätzlich erfolgten morphologische Kontrollen und Vitalitätsbestimmungen mittels dem Neutralrot-Test. Mit Ausnahme des Di(dodecanoyloxy)dimethylsilans standen alle Ergebnisse der morphologischen Untersuchungen in guter Übereinstimmung. […]

For data set [2] the test system is unchanged. Nature of the data set: tissue or blood. The data set is classed as cell-based.
Source text: Prüfung auf zytotoxisches Potential an Kälber-Aortenendothelzellinie BKEz-7
as §1

In another data set the test system is Plattenepithelkarzinome. Nature of the data set: Effect on squamous cell carcinomas.
The subject of another data set is Lymphome. Nature of the data set: Effect on lymphomas.
A further data set concerns Medulloblastome. Nature of the data set: Effect on medulloblastomas.
In a further data set the test system is Entero-Viren. Nature of the data set: Antiviral effect. To be noted: in particular as vesicles holding antisense constructs.
The next data set has as its system HIV-Vren. Nature of the data set: Antiviral effect. Conditions: in particular as vesicles holding antisense constructs.

In the case of `CCC[Si](CCC)(OC(=O)[C@H](Cc1ccccc1)NC(=O)[C@H](Cc1ccccc1)NC(=O)[C@H](Cc1ccccc1)NC(=O)[C@H](Cc1ccccc1)NC(=O)[C@H](Cc1ccccc1)NC(=O)[C@H](Cc1ccccc1)NC(=O)[C@@H](N)Cc1ccccc1)OC(=O)[C@H](Cc1ccccc1)NC(=O)[C@H](Cc1ccccc1)NC(=O)[C@H](Cc1ccccc1)NC(=O)[C@H](Cc1ccccc1)NC(=O)[C@H](Cc1ccccc1)NC(=O)[C@H](Cc1ccccc1)NC(=O)[C@@H](N)Cc1ccccc1` [Dipropyl bis(heptaphenylalanyl)silylester] (I: H-FFFFFFF / II: H-FFFFFFF; linker I:C-II:C via OSi(nPr)2O), in the data set with Plasmozyten, the “Wirkung gegen Plasmozyten” value is reported as “zeigen eine Wirkung”. Also, the “Wirkung gegen Hepatitis A-Viren” value in the data set with Hepatitis A-Viren is “zeigen eine Wirkung”.
On to `CCCCCCCCCCCC(=O)O[Si](C)(C)OC(=O)CCCCCCCCCCC` [Di(dodecanoyloxy)dimethylsilan], for which the “Wirkung auf Osteosarkome” value with Osteosarkome is “zeigen eine Wirkung”. The “zentrale, vegetative und toxische Effekte (Verhaltensänderungen)” value is “keine Verhaltensänderungen” with Maus (1•10^-3 mol/kg); “Ataxie, Ploerektion, Griffstärkesenkung” with Maus (5•10^-3 mol/kg); “keine Verhaltensänderungen” in the data set with Maus (5•10^-4 mol/kg). For the same compound, the “Vitalitätsbeeinflussungen im Neutralrot-Test” value in data set [1] is reported as “geringere Vitalitätsbeeinflussungen als im Zytotoxizitätstest”. For the same compound, the “Bedenkliche Toxizität” value in data set [2] was “-”. The compound also returned an IC50 in data set [2] (suspensions, 48 Stunden bei 37°C) of 129 µM.
As for `CCC[Si](CCC)(OC(=O)[C@H](C)NC(=O)[C@H](C)NC(=O)[C@H](C)NC(=O)[C@H](C)N)OC(=O)[C@H](C)NC(=O)[C@H](C)NC(=O)[C@H](C)NC(=O)[C@H](C)N` [Dipropyl bis(tetraalanyl)silylester] (I: H-AAAA / II: H-AAAA; linker I:C-II:C via OSi(nPr)2O), the “Wirkung gegen Plattenepithelkarzinome” value with Plattenepithelkarzinome is recorded as “zeigen eine Wirkung”.
On to `CC[Si](CC)(OC(=O)[C@@H](NC(=O)[C@@H](NC(=O)[C@@H](N)C(C)C)C(C)C)C(C)C)OC(=O)[C@@H](NC(=O)[C@@H](NC(=O)[C@@H](N)C(C)C)C(C)C)C(C)C` [Diethyl bis(trivalyl)silylester], for which, in the data set on Seminome, the “Wirkung auf Seminome” value is “zeigen eine Wirkung”.
`CCCCCCCC/C=C\CCCCCCCC(=O)O[Si](OC(=O)CCCCCCC/C=C\CCCCCCCC)(C(C)C)C(C)C`: in the data set on Lymphome, the “Wirkung auf Lymphome” value is recorded as “zeigen eine Wirkung”. Also, the “Wirkung gegen Medulloblastome” value with Medulloblastome is “zeigen eine Wirkung”. The “Wirkung gegen Entero-Viren” value with Entero-Viren is given as “zeigen eine Wirkung”. The “Wirkung gegen HIV-Vren” value in the data set with HIV-Vren is listed as “zeigen eine Wirkung”.

What is called IC50 is the concentration that gives 50% inhibition. Higher therefore signals weaker potency.
